The values below come from US10336761B2, “TGFβ receptor antagonist” (BRISTOL-MYERS SQUIBB COMPANY, priority 2015, dated 2019).

The target in this experiment is HIS-TGFβR1 T204D (Homo sapiens (Human), UniProt P36897, T204D). In words: HTRF probe-displacement assay, HIS-TGFβR1 T204D. The experiment is classed as binding. Particulars: 1 hour at room temperature. (In general: TR-FRET usually uses a lanthanide donor and a delayed reading to cut background.)
Sequence of HIS-TGFβR1 T204D (P36897 34-503 T204D): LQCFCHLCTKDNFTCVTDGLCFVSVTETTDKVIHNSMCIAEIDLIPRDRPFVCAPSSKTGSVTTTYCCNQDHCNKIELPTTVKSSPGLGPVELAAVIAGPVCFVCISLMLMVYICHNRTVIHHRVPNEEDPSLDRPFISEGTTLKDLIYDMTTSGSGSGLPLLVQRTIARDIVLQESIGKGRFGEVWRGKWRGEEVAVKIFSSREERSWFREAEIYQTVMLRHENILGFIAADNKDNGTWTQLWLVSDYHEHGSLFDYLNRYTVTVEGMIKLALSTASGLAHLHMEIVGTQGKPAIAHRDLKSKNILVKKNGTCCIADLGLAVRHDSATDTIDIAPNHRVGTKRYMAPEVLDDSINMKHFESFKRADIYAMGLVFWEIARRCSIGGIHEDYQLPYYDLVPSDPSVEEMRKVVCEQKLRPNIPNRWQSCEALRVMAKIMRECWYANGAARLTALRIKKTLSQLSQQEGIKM

Broadly, the IC50 is the point on the concentration scale where inhibition reaches its midpoint. A high value points to weaker potency in that assay. In the case of `Cc1cccc(-c2nc(Nc3ccncc3C(=O)NCC(C)(C)O)c3cccn3n2)n1` [Example 156, N-(2-hydroxy-2-methylpropyl)-4-{[2-(6-methylpyridin-2-yl)pyrrolo[2,1-f][1,2,4]triazin-4-yl]amino}pyridine-3-carboxamide], the IC50 is 0.05 µM.

Compound `Cc1cccc(-c2nc(Nc3ccncc3C(=O)NC(C)(C)CO)c3cccn3n2)n1` [Example 157, N-(1-hydroxy-2-methylpropan-2-yl)-4-{[2-(6-methylpyridin-2-yl)pyrrolo[2,1-f][1,2,4]triazin-4-yl]amino}pyridine-3-carboxamide] showed an IC50 of 0.034 µM. The same measure for `Cc1cccc(-c2nc(Nc3ccncc3C(=O)NC[C@H](O)CO)c3cccn3n2)n1` [Example 158, N-[(2S)-2,3-dihydroxypropyl]-4-{[2-(6-methylpyridin-2-yl)pyrrolo[2,1-f][1,2,4]triazin-4-yl]amino}pyridine-3-carboxamide]: 0.0079 µM. The figure for `Cc1cccc(-c2nc(Nc3ccncc3C(=O)NCCCO)c3cccn3n2)n1` [Example 159, N-(3-hydroxypropyl)-4-{[2-(6-methylpyridin-2-yl)pyrrolo[2,1-f][1,2,4]triazin-4-yl]amino}pyridine-3-carboxamide] is 0.0048 µM; for `Cc1cccc(-c2nc(Nc3ccncc3C(=O)NCCCN3CCN(C)CC3)c3cccn3n2)n1` [Example 160, N-[3-(4-methylpiperazin-1-yl)propyl]-4-{[2-(6-methylpyridin-2-yl)pyrrolo[2,1-f][1,2,4]triazin-4-yl]amino}pyridine-3-carboxamide] it is 0.0035 µM. The same measure for `Cc1cccc(-c2nc(Nc3ccncc3C(=O)NC3CCOC3)c3cccn3n2)n1` (stereo not shown) [Example 161, 4-{[2-(6-methylpyridin-2-yl)pyrrolo[2,1-f][1,2,4]triazin-4-yl]amino}-N-(oxolan-3-yl)pyridine-3-carboxamide]: 0.028 µM. Turning to `Cc1cccc(-c2nc(Nc3ccncc3C(=O)N(C)CCN(C)C)c3cccn3n2)n1` [Example 162, N-[2-(dimethylamino)ethyl]-N-methyl-4-{[2-(6-methylpyridin-2-yl)pyrrolo[2,1-f][1,2,4]triazin-4-yl]amino}pyridine-3-carboxamide], the IC50 was found to be 0.11 µM.

For the compound `Cc1cccc(-c2nc(Nc3ccncc3C(=O)N3CCOCC3)c3cccn3n2)n1` [Example 163, N-[2-(6-methylpyridin-2-yl)pyrrolo[2,1-f][1,2,4]triazin-4-yl]-3-(morpholine-4-carbonyl)pyridin-4-amine], the IC50 was 0.03 µM. The figure for `Cc1cccc(-c2nc(Nc3ccncc3C(=O)NC3CCOCC3)c3cccn3n2)n1` [Example 164, 4-{[2-(6-methylpyridin-2-yl)pyrrolo[2,1-f][1,2,4]triazin-4-yl]amino}-N-(oxan-4-yl)pyridine-3-carboxamide] is 0.075 µM.

In turn, `Cc1cccc(-c2nc(Nc3ccncc3C(=O)NC3COC3)c3cccn3n2)n1` [Example 165, 4-{[2-(6-methylpyridin-2-yl)pyrrolo[2,1-f][1,2,4]triazin-4-yl]amino}-N-(oxetan-3-yl)pyridine-3-carboxamide] gave an IC50 of 0.014 µM.

Compound `O=C(NCCCN1CCS(=O)(=O)CC1)c1cnccc1Nc1nc(-c2cccc(C(F)F)n2)nn2cccc12` [Example 168, 4-({2-[6-(difluoromethyl)pyridin-2-yl]pyrrolo[2,1-f][1,2,4]triazin-4-yl}amino)-N-[3-(1,1-dioxo-1,4-thiomorpholin-4-yl)propyl]pyridine-3-carboxamide] returned an IC50 of 0.0086 µM. For `O=C(NCCCN1CCOCC1)c1cnccc1Nc1nc(-c2cccc(C(F)(F)F)n2)nn2cccc12` [Example 169, N-[3-(morpholin-4-yl)propyl]-4-({2-[6-(trifluoromethyl)pyridin-2-yl]pyrrolo[2,1-f][1,2,4]triazin-4-yl}amino)pyridine-3-carboxamide], the IC50 was 0.045 µM. `O=C(NCCN1CCCC1)c1cnccc1Nc1nc(-c2cccc(C(F)(F)F)n2)nn2cccc12` [Example 170, N-[2-(pyrrolidin-1-yl)ethyl]-4-({2-[6-(trifluoromethyl)pyridin-2-yl]pyrrolo[2,1-f][1,2,4]triazin-4-yl}amino)pyridine-3-carboxamide] registered an IC50 of 0.017 µM. The figure for `O=C(NCCN1CCCCC1)c1cnccc1Nc1nc(-c2cccc(C(F)(F)F)n2)nn2cccc12` [Example 171, N-[2-(piperidin-1-yl)ethyl]-4-({2-[6-(trifluoromethyl)pyridin-2-yl]pyrrolo[2,1-f][1,2,4]triazin-4-yl}amino)pyridine-3-carboxamide] is 0.12 µM. The same measure for `CCOCCCNC(=O)c1cnccc1Nc1nc(-c2cccc(C(F)F)n2)nn2cccc12` [Example 172, 4-({2-[6-(difluoromethyl)pyridin-2-yl]pyrrolo[2,1-f][1,2,4]triazin-4-yl}amino)-N-(3-ethoxypropyl)pyridine-3-carboxamide]: 0.024 µM; for `CC(C)(C)OCCNC(=O)c1cnccc1Nc1nc(-c2cccc(C(F)F)n2)nn2cccc12` [Example 173, N-[2-(tert-butoxy)ethyl]-4-({2-[6-(difluoromethyl)pyridin-2-yl]pyrrolo[2,1-f][1,2,4]triazin-4-yl}amino)pyridine-3-carboxamide]: 0.048 µM; for `O=C(NCCOCCO)c1cnccc1Nc1nc(-c2cccc(C(F)F)n2)nn2cccc12` [Example 174, 4-({2-[6-(difluoromethyl)pyridin-2-yl]pyrrolo[2,1-f][1,2,4]triazin-4-yl}amino)-N-[2-(2-hydroxyethoxy)ethyl]pyridine-3-carboxamide]: 0.023 µM. The figure for `O=C(N[C@H]1CCCC[C@@H]1O)c1cnccc1Nc1nc(-c2cccc(C(F)F)n2)nn2cccc12` [Example 175, 4-({2-[6-(difluoromethyl)pyridin-2-yl]pyrrolo[2,1-f][1,2,4]triazin-4-yl}amino)-N-[(1S,2S)-2-hydroxycyclohexyl]pyridine-3-carboxamide] is 0.48 µM; for `CN1CCN(CCCNC(=O)c2cnccc2Nc2nc(-c3cccc(C(F)F)n3)nn3cccc23)CC1` [Example 176, 4-({2-[6-(difluoromethyl)pyridin-2-yl]pyrrolo[2,1-f][1,2,4]triazin-4-yl}amino)-N-[3-(4-methylpiperazin-1-yl)propyl]pyridine-3-carboxamide] it is 0.0085 µM.

Compound `O=C(NC1CCOC1)c1cnccc1Nc1nc(-c2cccc(C(F)F)n2)nn2cccc12` (stereo not shown) [Example 177, 4-({2-[6-(difluoromethyl)pyridin-2-yl]pyrrolo[2,1-f][1,2,4]triazin-4-yl}amino)-N-(oxolan-3-yl)pyridine-3-carboxamide] came in with an IC50 of 0.021 µM. The same measure for `O=C(NC1CCOCC1)c1cnccc1Nc1nc(-c2cccc(C(F)F)n2)nn2cccc12` [Example 178, 4-({2-[6-(difluoromethyl)pyridin-2-yl]pyrrolo[2,1-f][1,2,4]triazin-4-yl}amino)-N-(oxan-4-yl)pyridine-3-carboxamide]: 0.22 µM; for `O=C(NCCN1CCS(=O)(=O)CC1)c1cnccc1Nc1nc(-c2cccc(C(F)(F)F)n2)nn2cccc12` [Example 179, N-[2-(1,1-dioxo-1,4-thiomorpholin-4-yl)ethyl]-4-({2-[6-(trifluoromethyl)pyridin-2-yl]pyrrolo[2,1-f][1,2,4]triazin-4-yl}amino)pyridine-3-carboxamide]: 0.26 µM.
